Reference: PubChem BioAssay AID248 (DTP/NCI, 2004)
Where “and” joins values, the source holds several entries; their conditions need not be identical. Identical values can stand only once. Toxic doses and inconclusive results are not listed.

Test system: L1210 leukemia ip in BDF1 mice, survival T/C
Assay: NCI In Vivo Anticancer Drug Screen. Data for tumor model L1210 Leukemia (intraperitoneal) in B6D2F1 (BDF1) mice
Details: higher = longer survival
Procedure, shortened: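 Survival endpoint. Drug-treated group vs vehicle group, expressed as T divided by C. Tumor passaged by transplantation.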

[1] = endpoint: mean survival time, dose: 100.0 mg/kg/injection, schedule: Q01DX001 (ip), vehicle: saline
[2] = endpoint: mean survival time, dose: 200.0 mg/kg/injection, schedule: Q01DX001 (ip), vehicle: saline
[3] = endpoint: mean survival time, dose: 100.0 mg/kg/injection, schedule: Q01DX001 (ip), vehicle: saline with Tween-80
[4] = endpoint: mean survival time, dose: 200.0 mg/kg/injection, schedule: Q01DX001 (ip), vehicle: saline with Tween-80

## S=P(N1CC1)(N1CC1)N1CC1
endpoint: mean survival time, dose: 0.19 mg/kg/injection, schedule: Q01DX009 (ip), vehicle: saline
  T/C: 103 % of control and 104 % of control
endpoint: mean survival time, dose: 0.3 mg/kg/injection, schedule: Q01DX Z (ip), vehicle: carboxymethylcellulose (CMC)
  T/C: 106 % of control
endpoint: mean survival time, dose: 0.38 mg/kg/injection, schedule: Q01DX009 (ip), vehicle: saline
  T/C: 104 % of control and 111 % of control
endpoint: mean survival time, dose: 0.6 mg/kg/injection, schedule: Q01DX Z (ip), vehicle: carboxymethylcellulose (CMC)
  T/C: 101 % of control
endpoint: mean survival time, dose: 0.75 mg/kg/injection, schedule: Q01DX009 (ip), vehicle: saline
  T/C: 107 % of control and 120 % of control
endpoint: mean survival time, dose: 1.0 mg/kg/injection, schedule: Q01DX001 (ip), vehicle: saline
  T/C: 95 % of control (2×) and 119 % of control
endpoint: mean survival time, dose: 1.0 mg/kg/injection, schedule: Q01DX001 (oral), vehicle: saline
  T/C: 98 % of control and 105 % of control
endpoint: mean survival time, dose: 1.0 mg/kg/injection, schedule: Q01DX009 (ip), vehicle: saline
  T/C: 98 % of control and 119 % of control
endpoint: mean survival time, dose: 1.0 mg/kg/injection, schedule: Q04DX002 (ip), vehicle: saline
  T/C: 102 % of control and 121 % of control
endpoint: mean survival time, dose: 1.0 mg/kg/injection, schedule: Q04DX003 (ip), vehicle: saline
  T/C: 96 % of control and 104 % of control and 116 % of control
endpoint: mean survival time, dose: 1.2 mg/kg/injection, schedule: Q01DX Z (ip), vehicle: carboxymethylcellulose (CMC)
  T/C: 109 % of control
endpoint: mean survival time, dose: 1.25 mg/kg/injection, schedule: Q01DX Z (ip), vehicle: saline
  T/C: 118 % of control
endpoint: mean survival time, dose: 1.5 mg/kg/injection, schedule: Q01DX010 (oral), vehicle: carboxymethylcellulose (CMC)
  T/C: 113 % of control
endpoint: mean survival time, dose: 1.56 mg/kg/injection, schedule: Q01DX009 (ip), vehicle: saline
  T/C: 102 % of control and 117 % of control
endpoint: mean survival time, dose: 1.65 mg/kg/injection, schedule: Q01DX001 (ip), vehicle: saline
  T/C: 104 % of control
endpoint: mean survival time, dose: 2.0 mg/kg/injection, schedule: Q01DX001 (ip), vehicle: saline
  T/C: 97 % of control and 103 % of control and 114 % of control
endpoint: mean survival time, dose: 2.0 mg/kg/injection, schedule: Q01DX001 (oral), vehicle: saline
  T/C: 98 % of control and 102 % of control
endpoint: mean survival time, dose: 2.0 mg/kg/injection, schedule: Q01DX009 (ip), vehicle: saline
  T/C: 108 % of control
endpoint: mean survival time, dose: 2.0 mg/kg/injection, schedule: Q04DX002 (ip), vehicle: saline
  T/C: 101 % of control and 107 % of control
endpoint: mean survival time, dose: 2.0 mg/kg/injection, schedule: Q04DX003 (ip), vehicle: saline
  T/C: 102 % of control and 109 % of control and 116 % of control
endpoint: mean survival time, dose: 2.4 mg/kg/injection, schedule: Q01DX Z (ip), vehicle: carboxymethylcellulose (CMC)
  T/C: 121 % of control and 123 % of control
endpoint: mean survival time, dose: 2.5 mg/kg/injection, schedule: Q01DX001 (ip), vehicle: saline
  T/C: 110 % of control
endpoint: mean survival time, dose: 2.5 mg/kg/injection, schedule: Q01DX Z (ip), vehicle: saline
  T/C: 120 % of control
endpoint: mean survival time, dose: 3.0 mg/kg/injection, schedule: Q01DX001 (ip), vehicle: saline
  T/C: 106 % of control
endpoint: mean survival time, dose: 3.0 mg/kg/injection, schedule: Q01DX010 (oral), vehicle: carboxymethylcellulose (CMC)
  T/C: 115 % of control
endpoint: mean survival time, dose: 3.6 mg/kg/injection, schedule: Q01DX Z (ip), vehicle: carboxymethylcellulose (CMC)
  T/C: 118 % of control
endpoint: mean survival time, dose: 3.8 mg/kg/injection, schedule: Q01DX001 (ip), vehicle: saline
  T/C: 110 % of control
endpoint: mean survival time, dose: 4.0 mg/kg/injection, schedule: Q01DX001 (ip), vehicle: saline
  T/C: 97 % of control and 106 % of control and 111 % of control
endpoint: mean survival time, dose: 4.0 mg/kg/injection, schedule: Q01DX001 (oral), vehicle: saline
  T/C: 101 % of control and 105 % of control
endpoint: mean survival time, dose: 4.0 mg/kg/injection, schedule: Q01DX009 (ip), vehicle: saline
  T/C: 160 % of control and 161 % of control and 191 % of control
endpoint: mean survival time, dose: 5.0 mg/kg/injection, schedule: Q01DX Z (ip), vehicle: saline
  T/C: 102 % of control
endpoint: mean survival time, dose: 5.7 mg/kg/injection, schedule: Q01DX001 (ip), vehicle: saline
  T/C: 111 % of control
endpoint: mean survival time, dose: 6.0 mg/kg/injection, schedule: Q01DX001 (ip), vehicle: saline
  T/C: 113 % of control and 123 % of control
endpoint: mean survival time, dose: 6.25 mg/kg/injection, schedule: Q01DX009 (ip), vehicle: saline
  T/C: 178 % of control
endpoint: mean survival time, dose: 7.5 mg/kg/injection, schedule: Q01DX001 (ip), vehicle: saline
  T/C: 106 % of control and 118 % of control
endpoint: mean survival time, dose: 8.0 mg/kg/injection, schedule: Q01DX001 (oral), vehicle: saline
  T/C: 105 % of control and 117 % of control
endpoint: mean survival time, dose: 8.0 mg/kg/injection, schedule: Q01DX009 (ip), vehicle: saline
  T/C: 107 % of control and 113 % of control
endpoint: mean survival time, dose: 8.0 mg/kg/injection, schedule: Q04DX003 (ip), vehicle: saline
  T/C: 150 % of control and 179 % of control
endpoint: mean survival time, dose: 8.7 mg/kg/injection, schedule: Q01DX001 (ip), vehicle: saline
  T/C: 161 % of control
endpoint: mean survival time, dose: 11.0 mg/kg/injection, schedule: Q01DX001 (ip), vehicle: saline
  T/C: 122 % of control
endpoint: mean survival time, dose: 12.0 mg/kg/injection, schedule: Q01DX009 (ip), vehicle: saline
  T/C: 95 % of control and 100 % of control
endpoint: mean survival time, dose: 12.0 mg/kg/injection, schedule: Q01DX010 (oral), vehicle: carboxymethylcellulose (CMC)
  T/C: 166 % of control
endpoint: mean survival time, dose: 12.5 mg/kg/injection, schedule: Q01DX009 (ip), vehicle: saline
  T/C: 118 % of control
endpoint: mean survival time, dose: 14.0 mg/kg/injection, schedule: Q01DX001 (ip), vehicle: saline
  T/C: 109 % of control
endpoint: mean survival time, dose: 15.0 mg/kg/injection, schedule: Q01DX001 (ip), vehicle: saline
  T/C: 163 % of control and 201 % of control
endpoint: mean survival time, dose: 16.0 mg/kg/injection, schedule: Q01DX001 (oral), vehicle: saline
  T/C: 121 % of control
endpoint: mean survival time, dose: 16.0 mg/kg/injection, schedule: Q04DX003 (ip), vehicle: saline
  T/C: 104 % of control
endpoint: mean survival time, dose: 17.0 mg/kg/injection, schedule: Q01DX001 (ip), vehicle: saline
  T/C: 152 % of control and 155 % of control and 163 % of control
endpoint: mean survival time, dose: 20.0 mg/kg/injection, schedule: Q01DX001 (ip), vehicle: saline
  T/C: 163 % of control
endpoint: mean survival time, dose: 22.0 mg/kg/injection, schedule: Q01DX001 (ip), vehicle: saline
  T/C: 191 % of control
endpoint: mean survival time, dose: 23.0 mg/kg/injection, schedule: Q01DX001 (ip), vehicle: saline
  T/C: 150 % of control
endpoint: mean survival time, dose: 24.0 mg/kg/injection, schedule: Q01DX010 (oral), vehicle: carboxymethylcellulose (CMC)
  T/C: 152 % of control
endpoint: mean survival time, dose: 32.0 mg/kg/injection, schedule: Q04DX002 (ip), vehicle: saline
  T/C: 94 % of control
endpoint: median survival time, dose: 1.5 mg/kg/injection, schedule: Q01DX009 (ip), vehicle: distilled water + alcohol
  T/C: 103 % of control
endpoint: median survival time, dose: 1.5 mg/kg/injection, schedule: Q01DX009 (ip), vehicle: other
  T/C: 94 % of control
endpoint: median survival time, dose: 4.0 mg/kg/injection, schedule: Q01DX009 (ip), vehicle: water
  T/C: 151 % of control
endpoint: median survival time, dose: 5.0 mg/kg/injection, schedule: Q01DX009 (ip), vehicle: water
  T/C: 108 % of control
endpoint: median survival time, dose: 6.0 mg/kg/injection, schedule: Q01DX009 (ip), vehicle: water
  T/C: 110 % of control

## CC(C)NCCCN
endpoint: mean survival time, dose: 25.0 mg/kg/injection, schedule: Q04DX002 (ip), vehicle: saline with Tween-80
  T/C: 98 % of control
endpoint: mean survival time, dose: 50.0 mg/kg/injection, schedule: Q04DX002 (ip), vehicle: saline with Tween-80
  T/C: 98 % of control
[1]
  T/C: 103 % of control
endpoint: mean survival time, dose: 100.0 mg/kg/injection, schedule: Q04DX002 (ip), vehicle: saline with Tween-80
  T/C: 101 % of control and 106 % of control
[2]
  T/C: 109 % of control

## O=C(Nc1cc([N+](=O)[O-])ccc1S(=O)(=O)c1ccc([N+](=O)[O-])cc1NC(=O)c1ccccc1)c1ccccc1
endpoint: mean survival time, dose: 75.0 mg/kg/injection, schedule: Q04DX003 (ip), vehicle: saline
  T/C: 92 % of control
[1]
  T/C: 93 % of control
endpoint: mean survival time, dose: 150.0 mg/kg/injection, schedule: Q04DX003 (ip), vehicle: saline
  T/C: 124 % of control
[2]
  T/C: 94 % of control
endpoint: mean survival time, dose: 300.0 mg/kg/injection, schedule: Q04DX003 (ip), vehicle: saline
  T/C: 92 % of control
endpoint: mean survival time, dose: 400.0 mg/kg/injection, schedule: Q01DX001 (ip), vehicle: saline
  T/C: 94 % of control

## Fc1ccc(N=C2c3ccccc3-c3ccccc32)cc1
endpoint: mean survival time, dose: 100.0 mg/kg/injection, schedule: Q04DX003 (ip), vehicle: saline with Tween-80
  T/C: 93 % of control
endpoint: mean survival time, dose: 200.0 mg/kg/injection, schedule: Q04DX003 (ip), vehicle: saline with Tween-80
  T/C: 93 % of control
endpoint: mean survival time, dose: 400.0 mg/kg/injection, schedule: Q04DX003 (ip), vehicle: saline with Tween-80
  T/C: 95 % of control

## CC(C)CP(=O)(CC(C)C)C1CCCC1
[3]
  T/C: 100 % of control
[4]
  T/C: 105 % of control

## COC(=O)C(Cc1c[nH]c2ccccc12)NC(=O)C(NC(=O)OC(C)(C)C)C(C)C (stereo not drawn)
endpoint: mean survival time, dose: 100.0 mg/kg/injection, schedule: Q01DX001 (ip), vehicle: carboxymethylcellulose (CMC)
  T/C: 100 % of control
endpoint: mean survival time, dose: 200.0 mg/kg/injection, schedule: Q01DX001 (ip), vehicle: carboxymethylcellulose (CMC)
  T/C: 94 % of control
endpoint: mean survival time, dose: 400.0 mg/kg/injection, schedule: Q01DX001 (ip), vehicle: carboxymethylcellulose (CMC)
  T/C: 92 % of control

## O=c1c2ccccc2nc(-c2ccccc2)n1/N=C/c1ccccc1O
endpoint: mean survival time, dose: 100.0 mg/kg/injection, schedule: Q01DX009 (ip), vehicle: Klucel (hydroxypropylcellulose) (HPC)
  T/C: 103 % of control
endpoint: mean survival time, dose: 200.0 mg/kg/injection, schedule: Q01DX009 (ip), vehicle: Klucel (hydroxypropylcellulose) (HPC)
  T/C: 103 % of control
endpoint: mean survival time, dose: 400.0 mg/kg/injection, schedule: Q01DX009 (ip), vehicle: Klucel (hydroxypropylcellulose) (HPC)
  T/C: 100 % of control

## C/C=C/C=C/C(=O)c1cc(C#N)c(OC)cc1O
[3]
  T/C: 93 % of control
[4]
  T/C: 90 % of control
endpoint: mean survival time, dose: 400.0 mg/kg/injection, schedule: Q01DX001 (ip), vehicle: saline with Tween-80
  T/C: 93 % of control
